This is an account of results in patent publication US12612410B2 (CHILDREN'S HOSPITAL MEDICAL CENTER, priority 2020, dated 2026).

Test [1] concerns MOLM14 D835Y cells. Briefly: MOLM14 D835Y cell viability assay (Cell Titer Glo). Format: cell-based. Summed up:
(§1)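 MOLM14 cells carrying FLT3 D835Y or F691L were seeded at 1000 cells/well in RPMI-1640 with 20% FBS and dosed at 22 concentrations, 1:2 dilutions from 10 μM. Viability after 48 h by Cell Titer Glo luminescence; 2.3 μM bortezomib as cytotoxic control.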
For orientation: In ATP-based viability assays light output follows the ATP content of the culture.

Test [2] concerns MOLM14 F691L cells. Put plainly: MOLM14 F691L cell viability assay (Cell Titer Glo). Format: cell-based. Summed up: as §1
The target of test [3] is T1, IRAK4 (Homo sapiens, UniProt Q9NWZ3).
T1 sequence (Q9NWZ3 1-460): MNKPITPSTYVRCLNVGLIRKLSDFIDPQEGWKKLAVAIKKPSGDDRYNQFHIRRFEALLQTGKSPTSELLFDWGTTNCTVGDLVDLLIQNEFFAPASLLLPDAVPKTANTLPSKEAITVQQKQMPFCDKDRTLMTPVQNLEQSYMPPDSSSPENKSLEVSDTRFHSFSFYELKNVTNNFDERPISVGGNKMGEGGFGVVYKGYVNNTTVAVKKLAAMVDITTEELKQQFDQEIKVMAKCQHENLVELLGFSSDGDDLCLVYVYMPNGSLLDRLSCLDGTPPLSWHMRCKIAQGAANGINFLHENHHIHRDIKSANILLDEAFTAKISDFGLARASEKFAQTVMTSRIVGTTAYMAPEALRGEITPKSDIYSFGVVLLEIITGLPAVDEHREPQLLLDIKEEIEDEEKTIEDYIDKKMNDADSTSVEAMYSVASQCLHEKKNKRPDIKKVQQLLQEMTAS
Put plainly: RBC HotSpot Kinase Assay, IRAK4. It is filed as biochemical. Set-up: purchased Reaction Biology (RBC), HotSpot kinase assay. Conditions: isolated kinase, 33P-ATP. Summed up:
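Steps: substrate in reaction buffer (20 mM Hepes pH 7.5, 10 mM MgCl2, 2 mM DTT, 1% DMSO); cofactors added; kinase added; compound dispensed acoustically, 20 min RT; 33P-ATP added; 2 h RT; P81 filter capture.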

Test [4] relates to NF-κB. Put plainly: NF-kB SEAP reporter assay in THP-1-Blue NF-κB cells, hIL1B stimulation. Conditions: hIL1B 1 ng/mL, read-out: NF-κB IL1B IC50. It is filed as cell-based. As to the method:
(§2) THP-1-Blue NF-xB cells (InvivoGen) carrying a stable integrated NF-κB-inducible secreted embryonic alkaline phosphatase (SEAP) reporter construct were plated at a concentration of 1×10^5 cells per well. The cells were stimulated with Pam3CSK4 (1 ng/mL) or hIL1B (1 ng/mL). After 10-20 minutes, the cells were then treated with vehicle (DMSO) or serial dilutions of the test compounds (10 doses tested for each test compound, with a 1:10 dilution series starting at 1 μM or 3 μM) with a final volume of 200 μL for 24 hours at 37° C. After 24 hours, the cells were centrifuged and 20 μL supernatant was incubated with 180 μL QUANTI-Blue reagent at 37° C. for 30-60 minutes. The levels of NF-κB-induced was measured in a microplate reader at 620 nm.

Test [5] deals with NF-κB. Briefly: NF-kB SEAP reporter assay in THP-1-Blue NF-κB cells, Pam3CSK4 stimulation. Format: cell-based. The following applies: Pam3CSK4 1 ng/mL, read-out: NF-κB Pam3SCK4 IC50. As for the experimental part:
as §2
(In general: Reporter assays use an easily measured gene product as a stand-in for the process of interest.)

A value given as a limit tells only on which side of the number the result lay.

By IC50 is commonly meant the point on the concentration scale where inhibition reaches its midpoint. As to `CC(O)(c1cn2c(-c3cccc(N[C@H]4CNC[C@@H]4F)n3)cnc2cn1)C(F)(F)F` (single isomer, unassigned) [Compound 77], the concentration for half-maximal inhibition (IC50) in test [1] (48 hours) worked out at 106 nM; in test [2] (Homo sapiens, MOLM-14, 48 h), 376 nM; in test [3], 3 nM.

For `CC(O)(c1cn2c(-c3cccc(N[C@H]4CNC[C@@H]4F)n3)cnc2cn1)C(F)(F)F` (single isomer, unassigned) [Compound 78], the IC50 in test [1] (48 hours) was 47 nM; in test [2] (48 hours), 299 nM; in test [3], less than 0.5 nM.

As for `CC(O)(c1cn2c(-c3cccc(N[C@H]4CNCC[C@@H]4F)n3)cnc2cn1)C(F)(F)F` (single isomer, unassigned) [Compound 80], the IC50 in test [4] (24 hours) came to 124 nM; in test [1] (Homo sapiens, MOLM-14, 48 h), 68 nM; in test [2] (Homo sapiens, MOLM-14, 48 h), 196 nM; in test [5] (24 hours), 44 nM; in test [3] it was 3 nM.

For the compound `CC(O)(c1cn2c(-c3cccc(N[C@@H]4CCCNC4)n3)cnc2cn1)C(F)(F)F` (single isomer, unassigned) [Compound 81], the IC50 in test [4] (24 h) is 72 nM; in test [1] (Homo sapiens, MOLM-14, 48 h), 30 nM; in test [2] (Homo sapiens, MOLM-14, 48 h), 211 nM; in test [5] (24 h), 24 nM; in test [3] it was less than 0.5 nM.

On to `CC(O)(c1cn2c(-c3cccc(N[C@H]4CNCC[C@@H]4F)n3)cnc2cn1)C(F)(F)F` (single isomer, unassigned) [Compound 82], for which the IC50 in test [4] (24 hours) was 30 nM; in test [1] (48 hours), 34 nM; in test [2] (48 hours) it was 157 nM; in test [5] (24 hours), 12 nM; in test [3] it was less than 0.5 nM.

Regarding `CC1(c2cn3c(-c4cccc(N[C@H]5CNC[C@@H]5F)n4)cnc3cn2)CC1` [Compound 1, N-((3S,4S)-4-fluoropyrrolidin-3-yl)-6-(6-(1-methylcyclopropyl)imidazo[1,2-a]pyrazin-3-yl)pyridin-2-amine], the 50% inhibitory concentration (IC50) amounted to 9 nM in test [4] (24 h); 18 nM in test [1] (Homo sapiens, MOLM-14, 48 h); 169 nM in test [2] (Homo sapiens, MOLM-14, 48 h); 6 nM in test [5] (24 h); 0.5 nM in test [3].

In the case of `CC1(c2cn3c(-c4cccc(N[C@@H]5CCNC5)n4)cnc3cn2)CC1` [Compound 3, (R)-6-(6-(1-methylcyclopropyl)imidazo[1,2-a]pyrazin-3-yl)-N-(pyrrolidin-3-yl)pyridin-2-amine], the IC50 was 6 nM in test [1] (Homo sapiens, MOLM-14, 48 h) and 0.9 nM in test [3].

Regarding `CC1(c2cn3c(-c4cccc(N[C@H]5CNCC56CC6)n4)cnc3cn2)CC1` [Compound 5, (R)-N-(6-(6-(1-methylcyclopropyl)imidazo[1,2-a]pyrazin-3-yl)pyridin-2-yl)-5-azaspiro[2.4]heptan-7-amine], the half-inhibitory concentration (IC50) is 2 nM in test [1] (Homo sapiens, MOLM-14, 48 h); 34 nM in test [2] (Homo sapiens, MOLM-14, 48 h); less than 0.5 nM in test [3].

In the case of `FC(F)(F)C1(c2cn3c(-c4cccc(N[C@@H]5CCNC5)n4)cnc3cn2)CC1` [Compound 10, (R)-N-(pyrrolidin-3-yl)-6-(6-(1-(trifluoromethyl)cyclopropyl)imidazo[1,2-a]pyrazin-3-yl)pyridin-2-amine], the IC50 in test [1] (Homo sapiens, MOLM-14, 48 h) was 14 nM; in test [2] (Homo sapiens, MOLM-14, 48 h), 168 nM; in test [3] it was 2 nM.

In the case of `FC(F)c1cn2c(-c3cccc(N[C@H]4CNC[C@@H]4F)n3)cnc2cn1` [Compound 16, 6-(6-(difluoromethyl)imidazo[1,2-a]pyrazin-3-yl)-N-((3S,4S)-4-fluoropyrrolidin-3-yl)pyridin-2-amine], the IC50 in test [4] (24 h) amounted to 5 nM; in test [1] (Homo sapiens, MOLM-14, 48 h), 21 nM; in test [2] (Homo sapiens, MOLM-14, 48 h), 226 nM; in test [5] (24 h), 11 nM; in test [3] it was 1 nM.

As to `CC(C)(O)c1cn2c(-c3nc(N[C@H]4CNC[C@@H]4F)c(F)cc3F)cnc2cn1` [Compound 33, 2-(3-(3,5-difluoro-6-(((3S,4S)-4-fluoropyrrolidin-3-yl)amino)pyridin-2-yl)imidazo[1,2-a]pyrazin-6-yl)propan-2-ol], the IC50 in test [1] (Homo sapiens, MOLM-14, 48 h) is 168 nM; in test [2] (Homo sapiens, MOLM-14, 48 h), 2660 nM; in test [3] it was less than 0.5 nM.

As to `CC(C)(O)c1cn2c(-c3nc(N[C@@H]4CCCNC4)c(F)cc3F)cnc2cn1` [Compound 34, (R)-2-(3-(3,5-difluoro-6-(piperidin-3-ylamino)pyridin-2-yl)imidazo[1,2-a]pyrazin-6-yl)propan-2-ol], the IC50 in test [1] (Homo sapiens, MOLM-14, 48 h) came to 106 nM; in test [2] (Homo sapiens, MOLM-14, 48 h), 1330 nM; in test [3], 2 nM.

Take `FC(F)(F)COc1cn2c(-c3cccc(N[C@@H]4CCNC4)n3)cnc2cn1` [Compound 38, (R)-N-(pyrrolidin-3-yl)-6-(6-(2,2,2-trifluoroethoxy)imidazo[1,2-a]pyrazin-3-yl)pyridin-2-amine]: the half-maximal inhibitory concentration (IC50) in test [1] (Homo sapiens, MOLM-14, 48 h) stood at 23 nM; in test [3], 0.8 nM.

Turning to `Cn1cc(-c2cn3c(-c4cccc(N[C@@H]5CCCNC5)n4)cnc3cn2)cn1` [Compound 43, (R)-6-(6-(1-methyl-1H-pyrazol-4-yl)imidazo[1,2-a]pyrazin-3-yl)-N-(piperidin-3-yl)pyridin-2-amine], the concentration for half-maximal inhibition (IC50) was determined as 8 nM in test [1] (Homo sapiens, MOLM-14, 48 h); 79 nM in test [2] (Homo sapiens, MOLM-14, 48 h); 12 nM in test [3].

In the case of `Cn1cc(-c2cn3c(-c4cccc(N[C@H]5CNC[C@@H]5F)n4)cnc3cn2)cn1` [Compound 52, N-((3S,4S)-4-fluoropyrrolidin-3-yl)-6-(6-(1-methyl-1H-pyrazol-4-yl)imidazo[1,2-a]pyrazin-3-yl)pyridin-2-amine], the IC50 was found to be 11 nM in test [1] (Homo sapiens, MOLM-14, 48 h); 106 nM in test [2] (Homo sapiens, MOLM-14, 48 h); 1 nM in test [3].

As for `FC(F)COc1cn2c(-c3cccc(N[C@H]4CNC[C@@H]4F)n3)cnc2cn1` [Compound 58, 6-(6-(2,2-difluoroethoxy)imidazo[1,2-a]pyrazin-3-yl)-N-((3S,4S)-4-fluoropyrrolidin-3-yl)pyridin-2-amine], the IC50 in test [1] (Homo sapiens, MOLM-14, 48 h) amounted to 30 nM; in test [3] it was 1 nM.

Regarding `O=C1CCCN1c1cn2c(-c3nc(N[C@@H]4CCCNC4)c(F)cc3F)cnc2cn1` [Compound 108, (R)-1-(3-(3,5-difluoro-6-(piperidin-3-ylamino)pyridin-2-yl)imidazo[1,2-a]pyrazin-6-yl)pyrrolidin-2-one], the IC50 came to 26 nM in test [1] (Homo sapiens, MOLM-14, 48 h); 183 nM in test [2] (Homo sapiens, MOLM-14, 48 h); 13 nM in test [3].

Consider `CC(C)(C)c1cn2c(-c3nc(N[C@H]4CNC[C@@H]4F)c(F)cc3F)cnc2cn1` [Compound 125], for which the IC50 in test [1] (Homo sapiens, MOLM-14, 48 h) was 163 nM; in test [2] (Homo sapiens, MOLM-14, 48 h) it was 2050 nM; in test [3], 0.7 nM.

For the compound `CC(C)(C)c1cn2c(-c3nc(N[C@@H]4CCCNC4)c(F)cc3F)cnc2cn1` [Compound 126, (R)-6-(6-(tert-butyl)imidazo[1,2-a]pyrazin-3-yl)-3,5-difluoro-N-(piperidin-3-yl)pyridin-2-amine], the IC50 in test [1] (Homo sapiens, MOLM-14, 48 h) came to 21 nM; in test [2] (Homo sapiens, MOLM-14, 48 h) it was 205 nM; in test [3] it was 2 nM.

In the case of `CC(C)(C)c1cn2c(-c3nc(N[C@H]4CNCC[C@@H]4F)c(F)cc3F)cnc2cn1` [Compound 127, 6-(6-(tert-butyl)imidazo[1,2-a]pyrazin-3-yl)-3,5-difluoro-N-((3S,4S)-4-fluoropiperidin-3-yl)pyridin-2-amine], the IC50 in test [1] (Homo sapiens, MOLM-14, 48 h) was found to be 44 nM; in test [2] (Homo sapiens, MOLM-14, 48 h) it was 410 nM; in test [3], 2 nM.

Regarding `CC(C)(C)c1cn2c(-c3cccc(N[C@H]4CNCC[C@@H]4F)n3)cnc2cn1` [Compound 130, 6-(6-(tert-butyl)imidazo[1,2-a]pyrazin-3-yl)-N-((3S,4S)-4-fluoropiperidin-3-yl)pyridin-2-amine], the IC50 in test [1] (Homo sapiens, MOLM-14, 48 h) came out at 26 nM; in test [2] (Homo sapiens, MOLM-14, 48 h) it was 130 nM; in test [3] it was 3 nM.
